Measurements published in paper PMC11480954, “Molecular determinants of resurgent sodium currents mediated by Navβ4 peptide and A-type FHFs” (Frontiers in Molecular Neuroscience, 2024).
Values joined by “and” are separate entries in the source; they are usually repeats but may differ in a detail not shown here. Equal entries are not always repeated. Where two headings read alike, the source gives them in different places. No end group written: not given here.

Columns and labels:
[1] = test system: Nav1.7 N395K; details: ref Sheets et al., 2007; cited from earlier work
Excerpt: The receptor site of local anesthetics is formed by multiple residues within DIS6, DIIIS6 and DIVS6. […] Several studies have implicated F1764 and Y1771 in Nav1.2 (corresponding to F1737 and Y1744 in Nav1.7) as playing a major effect on local anesthetics-induced inhibition of VGSCs ([Ragsdale et al., 1996]). We recently reported that mutation of an asp ...

[2] = test system: human Nav1.8; assay: Gating properties (steady-state activation, inactivation, INaP), Nav1.8; format: cell-based; details: Nav1.8 + FHF2B, ND7/23; 1 mM; held at −100 mV; scramble n = 8, FHF4A peptide n = 10; p > 0.05
Method: (§1) HEK293 cells and ND7/23 cells were grown under standard tissue culture conditions (5% CO2 and 37°C) in DMEM supplemented with 10% FBS, 1% penicillin and 1% streptomycin. Using Invitrogen Lipofectamine 2000, human Nav1.7 R1599P (rpNav1.7) and the mutant constructs were transiently co-transfected with Navβ1 and Navβ2 into HEK293 cells. The constructs human Nav1.8 and mutants were transiently co-transfected with FHF2B or FHF4A into ND7/23 cells. The lipofectamine-DNA mixture was added to the cell culture medium and left for 3 h after which the cells were washed with fresh medium. Cells with green fluorescent protein fluorescence were selected for whole-cell patch-clamp recordings 36–72 h after transfection.
(§2) Whole-cell voltage-clamp recordings were performed at room temperature (~21°C) using an EPC-10 amplifier and the Pulse program (HEKA Electronics). Fire-polished electrodes (0.7–1.0 MΩ) were fabricated from 1.7 mm capillary glass using a P-97 puller (Sutter Instruments), and the tips were coated with sticky wax (KerrLab) to reduce electrode capacitance and enable increased series resistance compensation. The pipette solution contained (in mM) 140 CsF, 1.1 EGTA, 10 NaCl, and 10 HEPES, pH 7.3. The bathing solution was (in mM) 130 mM NaCl, 30 mM TEA chloride, 1 mM MgCl2, 3 mM KCl, 1 mM CaCl2, 10 mM HEPES, and 10 mM d-glucose, pH 7.3 (adjusted with NaOH). […] The offset potential was zeroed before contacting the cell. After establishing the whole-cell recording configuration, the resting potential was held at −120 or −100 mV for 5 min to allow adequate equilibration between the micropipette solution and the cell interior. Linear leak subtraction, based on resistance estimates from four to five hyperpolarizing pulses applied before the depolarizing test potential, was used for all voltage clamp recordings. Membrane currents were usually filtered at 5 kHz and sampled at 20 kHz. […] Voltage errors were minimized using 80–95% series resistance compensation, and the capacitance artifact was canceled using the computer-controlled circuitry of the patch clamp amplifier. […] The concentration-dependent curves were fitted to a hill equation: Y = Bottom + (Top-Bottom)/(1 + 10^((LogEC50-X)*HillSlope)).
(§3) Families of sodium currents were induced by 50-ms depolarizing steps to various potentials ranging from −120 (or −100) to +40 mV in 5-mV increments. The conductance was calculated using the equation G(Nav) = I/(V - Vrev) in which I, V, and Vrev represent inward current value, membrane potential, and reversal potential, respectively.
Voltage dependence of steady-state inactivation was estimated using a standard double pulse protocol in which sodium currents were induced by a 50-ms depolarizing potential of 0 mV following a 500-ms prepulse at potentials that ranged from −150 to +10 mV with a 10-mV increment. Currents were plotted as a fraction of the maximum peak current. To obtain the midpoint voltages (V1/2) and slope factor (k), the curves of both steady-state activation and inactivation were fitted to a Boltzmann function.

[3] = test system: human Nav1.7; assay: Steady-state activation and inactivation, WT Nav1.7; format: cell-based; details: HEK293, 100 μM intracellular, mean ± S.E., scramble n = 6, Navβ4 peptide n = 8
Method: as §1
Whole-cell voltage-clamp recordings were performed at room temperature (~21°C) using an EPC-10 amplifier and the Pulse program (HEKA Electronics). […]
as §3, with “respectively. […]” for “respectively.”

[4] = test system: human Nav1.8; assay: INaR, Nav1.8 co-expressed with FHF2B; format: cell-based; details: Nav1.8 + FHF2B, ND7/23, 1 mM
Method: as §1, §2
(§4) INaR: INaR was elicited by repolarizing voltage steps from +20 to −80 mV for 100 ms (or 200 ms) in −5 mV increments, following a 20-ms depolarizing potential of +30 mV. […] The relative INaR in Nav1.7 and Nav1.8 was calculated by normalizing to the peak transient current elicited at −10 or 0 mV.

[5] = molecular target: T1, human Nav1.7 R1599P (rpNav1.7) (Homo sapiens, UniProt Q15858, R1610P); assay: Long-term inactivation of rpNav1.7; format: cell-based; details: rpNav1.7, HEK293; 1 mM; six 16-ms pulses of −10 mV from −100 mV, 40-ms interpulse; scramble n = 6, FHF4A peptide n = 5; p < 0.0001
T1 construct: expressed in transfected cells; host or cells: HEK293 cells, transient transfection with pcDNA3.1 construct
T1 sequence (Q15858 1-1977 isoform Q15858-3 R1599P): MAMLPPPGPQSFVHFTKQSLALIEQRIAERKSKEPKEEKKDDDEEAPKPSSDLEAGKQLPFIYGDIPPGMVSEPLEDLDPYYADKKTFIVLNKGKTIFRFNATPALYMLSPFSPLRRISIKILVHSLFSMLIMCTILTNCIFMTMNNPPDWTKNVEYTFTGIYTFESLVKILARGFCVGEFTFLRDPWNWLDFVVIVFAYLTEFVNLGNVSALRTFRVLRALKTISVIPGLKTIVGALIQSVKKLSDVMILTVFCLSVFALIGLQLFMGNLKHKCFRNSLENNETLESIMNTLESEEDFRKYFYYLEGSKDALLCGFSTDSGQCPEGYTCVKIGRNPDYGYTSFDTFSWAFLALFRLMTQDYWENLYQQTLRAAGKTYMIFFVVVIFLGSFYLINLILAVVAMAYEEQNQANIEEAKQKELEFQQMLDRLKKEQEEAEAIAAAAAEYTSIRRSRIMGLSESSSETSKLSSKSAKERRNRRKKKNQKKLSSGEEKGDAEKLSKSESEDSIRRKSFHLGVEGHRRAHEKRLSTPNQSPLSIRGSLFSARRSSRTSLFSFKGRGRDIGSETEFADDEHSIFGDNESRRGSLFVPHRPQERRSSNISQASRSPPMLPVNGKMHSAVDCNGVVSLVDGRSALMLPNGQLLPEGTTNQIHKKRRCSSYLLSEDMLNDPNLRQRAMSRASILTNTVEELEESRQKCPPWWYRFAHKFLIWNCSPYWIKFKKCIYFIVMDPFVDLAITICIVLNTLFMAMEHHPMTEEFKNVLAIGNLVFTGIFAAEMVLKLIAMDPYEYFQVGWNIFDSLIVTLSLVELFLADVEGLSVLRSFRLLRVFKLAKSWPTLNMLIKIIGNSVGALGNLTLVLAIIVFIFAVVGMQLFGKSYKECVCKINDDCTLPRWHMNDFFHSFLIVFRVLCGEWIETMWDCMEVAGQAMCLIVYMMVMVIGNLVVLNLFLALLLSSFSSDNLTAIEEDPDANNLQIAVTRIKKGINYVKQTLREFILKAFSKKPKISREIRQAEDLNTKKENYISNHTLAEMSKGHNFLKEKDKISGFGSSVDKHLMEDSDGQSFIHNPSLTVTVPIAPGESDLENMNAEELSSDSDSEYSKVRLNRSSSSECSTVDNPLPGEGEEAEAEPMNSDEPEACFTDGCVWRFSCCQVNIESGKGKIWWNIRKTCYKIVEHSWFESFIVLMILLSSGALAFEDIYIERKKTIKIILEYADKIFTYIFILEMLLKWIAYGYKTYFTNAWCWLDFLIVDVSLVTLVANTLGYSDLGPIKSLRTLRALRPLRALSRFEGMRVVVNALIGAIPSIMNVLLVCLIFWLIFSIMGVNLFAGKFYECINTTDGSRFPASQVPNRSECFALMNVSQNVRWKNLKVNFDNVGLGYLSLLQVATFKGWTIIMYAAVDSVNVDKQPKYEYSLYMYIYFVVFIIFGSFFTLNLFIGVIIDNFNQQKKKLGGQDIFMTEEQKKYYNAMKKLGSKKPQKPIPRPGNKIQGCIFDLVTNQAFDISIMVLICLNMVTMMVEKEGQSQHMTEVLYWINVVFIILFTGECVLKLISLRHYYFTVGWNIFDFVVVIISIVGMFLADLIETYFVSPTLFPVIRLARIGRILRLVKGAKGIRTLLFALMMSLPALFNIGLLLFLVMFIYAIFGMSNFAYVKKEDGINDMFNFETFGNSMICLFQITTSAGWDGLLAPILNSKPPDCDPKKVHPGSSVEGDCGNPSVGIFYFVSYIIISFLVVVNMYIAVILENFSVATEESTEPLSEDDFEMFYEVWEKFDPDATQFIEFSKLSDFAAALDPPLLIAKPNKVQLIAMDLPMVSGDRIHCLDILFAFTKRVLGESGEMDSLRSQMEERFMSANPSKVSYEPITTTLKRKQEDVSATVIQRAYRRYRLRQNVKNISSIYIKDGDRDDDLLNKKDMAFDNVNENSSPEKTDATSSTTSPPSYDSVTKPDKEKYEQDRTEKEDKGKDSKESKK
T1 sequence (Q07699 19-218 partner): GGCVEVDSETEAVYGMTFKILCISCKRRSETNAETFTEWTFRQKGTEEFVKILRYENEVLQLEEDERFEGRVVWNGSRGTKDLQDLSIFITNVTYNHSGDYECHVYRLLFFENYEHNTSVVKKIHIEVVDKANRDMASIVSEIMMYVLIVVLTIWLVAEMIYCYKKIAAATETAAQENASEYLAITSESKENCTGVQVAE
T1 sequence (O60939 30-215 partner): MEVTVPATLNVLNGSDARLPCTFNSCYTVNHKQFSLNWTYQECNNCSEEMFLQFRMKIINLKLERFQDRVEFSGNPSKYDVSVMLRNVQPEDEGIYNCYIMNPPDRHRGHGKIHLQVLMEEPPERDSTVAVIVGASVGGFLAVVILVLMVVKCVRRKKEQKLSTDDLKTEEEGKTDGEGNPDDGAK

[6] = molecular target: T1, human Nav1.7 R1599P (rpNav1.7); assay: Resurgent current (INaR), whole-cell patch clamp, rpNav1.7; format: cell-based
Method: as §1
(§5) Whole-cell voltage-clamp recordings were performed at room temperature (~21°C) using an EPC-10 amplifier and the Pulse program (HEKA Electronics). Fire-polished electrodes (0.7–1.0 MΩ) were fabricated from 1.7 mm capillary glass using a P-97 puller (Sutter Instruments), and the tips were coated with sticky wax (KerrLab) to reduce electrode capacitance and enable increased series resistance compensation. The pipette solution contained (in mM) 140 CsF, 1.1 EGTA, 10 NaCl, and 10 HEPES, pH 7.3. The bathing solution was (in mM) 130 mM NaCl, 30 mM TEA chloride, 1 mM MgCl2, 3 mM KCl, 1 mM CaCl2, 10 mM HEPES, and 10 mM d-glucose, pH 7.3 (adjusted with NaOH). […] The offset potential was zeroed before contacting the cell. After establishing the whole-cell recording configuration, the resting potential was held at −120 or −100 mV for 5 min to allow adequate equilibration between the micropipette solution and the cell interior. […]
as §4

[7] = molecular target: T1, human Nav1.7 R1599P (rpNav1.7); assay: Gating properties (steady-state activation, inactivation, INaP), rpNav1.7; format: cell-based
Method: as §1, §5
as §3, with “respectively. […]” for “respectively.”

[8] = test system: Purkinje neurons; details: ref White et al., 2019, cited from earlier work
Excerpt: Next, we investigated if FHF4A, another INaR mediator reported recently ([White et al., 2019]; [Xiao et al., 2022]), shares the receptor site in VGSCs with Navβ4 peptide.

[9] = test system: VGSC α-subunits; details: heterologous co-expression with VGSC α-subunits; no reference given; cited from earlier work
Excerpt: FHF4A could still induce INaR from the F1710K channel (Figure 10A), but the average INaR amplitude at −20 mV is only 2.0% ± 0.2% of the peak transient current, which is less than one-half of the value from WT Nav1.8 (p < 0.0001). ... || The role of Navβ4 in INaR generation remains controversial. […] [Bant and Raman (2010)] reported that siRNA induced knock-down of Navβ4 reduced INaR generation in cultured cerebellar granular neurons by roughly 60%. […] Furthermore, Scn4b knock-out in mice has produced variable effects on INaR. In striatal neurons, Scn4b kno ...

CCN(CC)CC(=O)Nc1c(C)cccc1C [lidocaine]
effect of N395K on lidocaine inhibition of Nav1.7 [1]: attenuates the inhibitory effects of lidocaine on Nav1.7

KAREAQRASRAIEQLRSAKI [scrambled peptide, scrambled control peptide]
V1/2 (activation), Nav1.8, Figure 6 [2]: −10.0 ± 2.4 mV
V1/2 (inactivation), Nav1.8, Figure 6 [2]: −44.5 ± 2.1 mV
V1/2(activation), WT Nav1.7 ([3]; p < 0.01): −29.3 ± 1.6 mV
V1/2(inactivation), WT Nav1.7 ([3]; p < 0.05): −79.7 ± 1.7 mV
INaR with scrambled peptide, Nav1.8 [4]: failed to produce INaR
fraction of the current elicited at the 6th pulse [5]: 0.87 ± 0.08
INaR elicited with scrambled peptide ([6]; Nav1.7 and rpNav1.7 (Figures 1A,B), HEK293, 100 μM intracellular): no INaR was elicited
Inactivation (V1/2), rpNav1.7 ([7]; HEK293, 100 μM intracellular, mean ± S.E., scramble n = 5, Navβ4 peptide n = 9, p < 0.05): −75.0 ± 1.5 mV
Activation (V1/2), rpNav1.7 ([7]; HEK293, 100 μM intracellular, mean ± S.E., scramble n = 6, Navβ4 peptide n = 9, p < 0.01): −27.0 ± 1.9 mV

KKLITFILKKTREK [Navβ4 peptide]
average INaR amplitude elicited at −30 mV ([6]; rpNav1.7 + Navβ1 + Navβ2, HEK293, 100 μM peptide intracellular, measured after 3.0 ms into repolarization, ~21°C, mean ± S.E., n = 14): 15.7% ± 1.1%
EC50 ([6]; rpNav1.7, HEK293, Hill equation, peptide in intracellular solution (10 μM – 1 mM), each data point from 3 to 14 cells, read-out: EC50 for INaR generation): 61.8 ± 1.3 µM
INaP, rpNav1.7 ([7]; end of 50-ms pulse of −10 mV, normalized to peak transient current, 100 μM Navβ4 peptide, n = 9): 7.1% ± 3.0% and 7.1 ± 3.0 (9) %

peptide derived from the sequence FHF4A K50 – R63: a peptide derived from the sequence FHF4A K50 – R63 (KVRIFGLKKRRLRR; FHF4A; UniProt Q92915 50-63, looked up, fragment)
INaR in Purkinje neurons [8]: INaR was also reconstituted in Purkinje neurons
INaR in Purkinje neurons ([8]; listed as short peptide derived from this segment): induce robust Nav1.6 INaR in Purkinje neurons

substitution of the 7^th residue leucine with serine: FHF4A K50 – R63 peptide with substitution of the 7th residue leucine with serine (KVRIFGSKKRRLRR; FHF4A peptide K50-R63; UniProt Q92915 50-63, looked up, variant L56S)
INaR in Purkinje neurons [8]: no longer induce INaR

B1: full-length Navβ4: full-length Navβ4 sodium channel auxiliary subunit (protein, UniProt Q8IWT1 1-228, looked up)
chain: MPGAGDGGKAPARWLGTGLLGLFLLPVTLSLEVSVGKATDIYAVNGTEILLPCTFSSCFGFEDLHFRWTYNSSDAFKILIEGTVKNEKSDPKVTLKDDDRITLVGSTKEKMNNISIVLRDLEFSDTGKYTCHVKNPKENNLQHHATIFLQVVDRLEEVDNTVTLIILAVVGGVIGLLILILLIKKLIIFILKKTREKKKECLVSSSGNDNTENGLPGSKAEEKPPSKV
modifications: full-length
notes: full-length Navβ4 sodium channel auxiliary subunit
INaR with full-length Navβ4 [9]: fails to reconstitute INaR in heterologous systems
